# Measured values published in a melting point compilation (Tetko et al.; mined from patent text by program, amines drawn as free bases though some values may be those of a salt).
row,melting point [°C],Structure (SMILES)
1,225 to 226,COC(=O)c1ccc(-c2cc(-c3ccc(Cl)cc3)on2)cc1
2,155,O=S(CCCCOc1ccc(C2=C(c3ccccc3)CCCc3cc(O)ccc32)cc1)CCCC(F)(F)C(F)(F)F (centres undefined)
3,164 to 165,Cc1c(Nc2cc(-c3cccc(C4NCCc5c4sc4c5CC(C)(C)C4)c3CO)cn(C)c2=O)cnn1C (centres undefined)
4,290,CC1=CC(=C=C2C(C#N)C(=C(C#N)C#N)OC2(C)C)C=C(C)N1c1ccccc1 (centres undefined)
5,191 to 193,CN1C(=O)C(C(=O)Nc2ccc(Cl)c(Cl)c2)Sc2ccccc21 (centres undefined)
6,168 to 170,CN(CCOc1ccc(CC(F)C(N)=O)cc1)c1nc2ccccc2o1 (centres undefined)
7,196 to 197,CC(C)(C)OC(=O)CCc1ccc(-c2nc(=O)c3ccccc3s2)nc1C#N
8,209 to 211,O=C(O)C1CCN2c3ccc(Cl)cc3Oc3ccccc3C2C1 (centres undefined)
9,192 to 195,Cc1noc(C)c1-c1cn(Cc2ccccc2)c(=O)c2cccnc12
10,220 to 223,O=C(/C=C/c1ccc2ccccc2c1)Nc1cc(Cl)ccc1NS(=O)(=O)c1ccccc1
11,154 to 155,Cc1nc(-n2cnn(CCOc3ccc(F)cc3)c2=O)sc1C(=O)NCc1cccnc1
12,87 to 88.5,O=C(O)Cc1cc(Br)ccc1OCc1ccccc1
13,171 to 172,CN1CCN(c2ccc(Nc3cc(-c4cccc(N5Cc6cc(C(C)(C)C)ccc6C5=O)c4CO)cn(C)c3=O)nn2)CC1
14,212 to 215,O=C(CCCCCCNC(=O)c1ccc(C(C(=O)Nc2cccc3cccnc23)C(=O)Nc2cccc3cccnc23)cc1)NO
15,181 to 183,CCN1C(=O)C(C)(C)CCc2c1ccc(Nc1ncc(Cl)c(Nc3ccc(N4CCOCC4)cc3OC)n1)c2OC
16,166 to 168,CC(c1ccccc1)C(C(=O)c1ccccc1)n1cncn1 (centres undefined)
17,157 to 158,COc1ccc(S(=O)(=O)N2C(=O)C(O[Si](C)(C)C)(c3ccccc3OC)c3cc(Cl)ccc32)c(OC)c1 (centres undefined)
18,146 to 147,CNC(=O)c1cccc(F)c1Nc1nc(Nc2ccc3c(c2)CCCC(=O)N3CCOC)ncc1Cl
19,107,CCOC(=O)C(CC)Sc1nc2c(c(=O)[nH]c(=O)n2C)n1Cc1cccc(N)c1 (centres undefined)
20,276 to 279,CC(=O)Nc1ccc2c(c1)c(C1=C(c3cn(C)c4ccccc34)C(=O)NC1=O)cn2C
21,45 to 53,COc1ccc(S(=O)(=O)N(Cc2cccnc2)C(C(N)=O)C(C)C)cc1 (centres undefined)
22,85 to 87,C=C[Si](C)(c1ccccc1)c1cccc(Cl)c1C(=O)NCC (centres undefined)

row,melting point [°C],Structure (SMILES)
1,220,COc1cnc(N2CCN(c3ccc(-n4c(C)nn(CC(=O)c5ccc(Cl)cc5)c4=O)cc3)CC2)nc1
2,214 to 215,CCc1[nH]c2ccc(OC)cc2c1/C=C/C(=O)c1ccncc1
3,132 to 134,CN(C)CCOc1ccc(-c2n[nH]c3ncccc23)cc1
4,109 to 110,CCOC(Cc1ccc(NCc2ccc(O)cc2)cc1)C(=O)OC (centres undefined)
5,121 to 123,N#Cc1ccc(Cn2cncc2CCCO)cc1
6,206 to 208,COC(=O)c1cc(NC(=O)Nc2ccccc2)ccn1
7,127 to 129,CCCc1c(OCCCCCC(=O)c2cc(OC)c(OC)cc2F)ccc(C(=O)OC)c1O
8,61.7,O=C(N[C@@H](CSc1ccccc1)[C@H]1CO1)OCc1ccccc1
9,107 to 108,O=Cc1ccc2cc(OCc3ccccc3)ccc2c1
10,117 to 118,CCOC(=O)c1cccc(Oc2ncccc2O)c1
11,187 to 189,CCCCNC(=O)c1cn2nc(N3CCN(C(=O)c4ccccc4C(F)(F)F)CC3)ccc2n1
12,78,CCCCc1nc(Cl)c(CC(=O)OCC)c(Cc2ccc(C(=O)OC)cc2)n1
13,221 to 222,COc1ccc(C(=O)Nc2ccccc2)cc1Nc1ccc(C2=NC(C)(C)CO2)cc1
14,243 to 245,CC(=O)Oc1c(C(C)C)cc(-c2c3ccccc3cc3sc(C)c(C)c23)cc1C(C)C
15,270 to 271,COc1ccc2c(c1)C(=NO)c1c-2cnc2ccccc12
16,216 to 217,CCCCN(CCCCO)c1ccc(C=Cc2ccc(C=CC3=C(C#N)C(=C(C#N)C#N)OC3(C)C)s2)c(OCc2ccccc2)c1
17,230 to 233,N#CCc1c(C(=O)O)cc2ccc3c(c2c1-c1ccc(F)cc1)OCO3
18,231 to 233,O=c1[nH]c2cc(Cl)ccc2c(CCc2nnn[nH]2)c1-c1ccccc1
19,167 to 168,CCCc1nc2c(N)nc3cc(Oc4ccccc4C(=O)OC)ccc3c2n1CC(C)C
20,114 to 115,CC(C)(C)c1cc(-c2ccc(F)cc2F)cc(C(=O)Nc2ccc(S(=O)(=O)C(F)(F)F)cc2Cl)c1O
21,205 to 206,COC(=O)c1ccc(NC(=O)c2sc3ccc(OC)cc3c2Cl)cc1

# The next lines start with the molecule.
row,Structure (SMILES),melting point [°C]
1,COCOc1ccc(O)c(CC#N)c1,68 to 69
2,O=c1[nH]c2cc(C(F)(F)F)cc(Br)c2[nH]c1=NO,221 to 223
3,C=CCCC(O)=C(C#N)C(=O)Nc1ccc(Cl)c(C)c1,134
4,Nc1ccc(C(=O)NO)c(O)c1,180 to 181
5,CN(C(=O)/C=C/c1ccco1)c1ccc(S(=O)(=O)NC2CCCCCC2)cc1,152 to 155
6,O=S1(=O)CCN(CC#Cc2cnc3c(c2)N(Cc2cc(Cl)ccc2Cl)CCN3)CC1,> 200
7,CCCc1nnc2ccc(-c3ccc(C(F)(F)F)cc3)nn12,173 to 175
8,CCOC(=O)CC(=O)Nc1ccc(F)cc1F,66 to 68
9,Cc1nc2n(C)ncn2c(=O)c1CCO,215
10,CC(C)NCC(O)c1ccc2c(c1)OCO2 (centres undefined),117 to 118
11,CC1(O/N=C(\C(=O)O)c2csc(N)n2)CCCCC1,203 to 204
12,Cc1ccc(Cc2cnc(CCCOc3cc(CN4CCCCC4)ccn3)[nH]c2=O)cn1,99 to 100
13,NNc1nc(C(F)(F)F)nc(-c2ccccc2)c1-c1ccccc1,182 to 186
14,COc1cc(Cl)nc(NC(=O)NS(=O)(=O)c2ccccc2OC(Cl)=CCl)n1,196 to 198
15,COc1cc(C)nc(NC(=O)NS(=O)(=O)c2cccc3c2OCCO3)n1,203 to 205
16,O=C(/C=C/c1ccc(Br)cc1)/C=C/c1ccc(Br)cc1,211 to 213
17,CC(=O)C(C)(C)CS(=O)(=O)c1ccccc1,56 to 58
18,O=c1[nH]c2ccccc2n1CCN1CCN(c2cc(O)cc(C(F)(F)F)c2)CC1,170
19,NS(=O)(=O)c1ccc(-c2cn(-c3nc(-c4ccc(C(F)(F)F)cc4)cc(C(F)(F)F)n3)cn2)s1,281
20,NCCOc1cccc2[nH]ccc12,123 to 125
21,COC(=O)C(Oc1nc(OC)cc(OC)n1)C(C)(N=[N+]=[N-])c1ccccc1 (centres undefined),118 to 120

row,Structure (SMILES),melting point [°C]
1,Nc1sc2c(c1C(=O)c1ccccn1)CCCC2,191 to 193
2,Cc1ccc(-c2n[nH]cc2C=O)s1,97 to 99
3,COc1ccnc(N2CCN(CC3(CNC(C)=O)C=CC=CC3)CC2)n1 (centres undefined),144 to 145
4,COc1ccc(C2(CCCCl)S(=O)CCCS2=O)cc1OC (centres undefined),163 to 164
5,CCC(=O)Oc1cccc(NC(=O)CBr)c1,85 to 88
6,CN(C)C(=O)C1N=C(c2ccccc2)c2cc(Cl)ccc2NC1=O (centres undefined),297
7,CCOC(=O)c1nc(N)sc1-c1nc2cc(C)ccn2c1C,226 to 228
8,COP(=O)(Cc1cc(Cl)c(O)c(C(C)(C)C)c1)OC,107
9,O=S1(=O)N=CN(C2CC2)c2cc(F)cc(Br)c21,270 to 273
10,O=C1C2CC2C(=O)N1CCC1=CCCCC1 (centres undefined),60 to 61
11,COc1cccc2c1OCc1nc(C(=O)O)cn1-2,275 to 277
12,N#Cc1ccc(N2CCC(CCO)C2)c2ccsc12 (centres undefined),109 to 111
13,CN(c1cc(F)cc2cc(C3=NCCS3)[nH]c12)S(=O)(=O)c1cccs1,188 to 189
14,COc1cc(NC(=O)CC23CC4CC(CC(C4)C2)C3)c(C)c(OC)c1,201 to 203
15,O=C1c2cc(Cl)ccc2N(N2CCOCC2)C2=NCCN12,238 to 239
16,O=[N+]([O-])C=C1NCCN1Cc1cc(Br)no1,202
17,Cc1ccc(C)n1CCC1SCCC(=O)NC1C(N)=O (centres undefined),181 to 183
18,Brc1cnc2c(Br)cncc2c1,186 to 188
19,CC(=O)SCC(C(=O)NC(Cc1ccc(O)cc1)C(=O)O)C(F)(F)F (centres undefined),170 to 173
20,NC(=O)c1cn(-c2ccc(Cl)c(Cl)c2)cn1,244 to 245
21,CN1CCCC(c2ccccc2)c2[nH]c3ccccc3c2CC1 (centres undefined),117 to 119

row,Structure (SMILES),melting point [°C]
1,COc1ccc(-c2c3c(c(O)c4cc(OC)c(OC)c(OC)c24)C(=O)CCC3)cc1OC,164 to 166
2,O=C(O)/C=C/C(=O)/C=C/c1ccc(F)cc1,160 to 162
3,CCOC(=O)CSc1nccc(NCCc2ccc(Cl)cc2)n1,58 to 61
4,Cc1c(C(=O)c2ccccc2)cccc1[N+](=O)[O-],42
5,N#Cc1cc(N)ccc1N1CCN(C2CCOCC2)CC1,162
6,Nc1nc(-c2ccc(Cl)cc2F)nc(C(=O)O)c1Cl,194 to 196
7,COC(=O)c1cnc2cccc(OC)c2c1,102
8,O=C1OC2CC1(O)CC(O)C2O (centres undefined),184 to 188
9,C[C@@H](SCC(N)=O)[C@](O)(Cn1cncn1)c1ccc(F)cc1F,144 to 145
10,O=C1NC(=O)N(CCc2ccc(Cl)cc2)C1O (centres undefined),151 to 152
11,CCCCNC(=O)N(C)c1ncc(-c2ccncc2)cn1,97 to 99
12,CC(=O)NC[C@H]1CN(c2ccc(N3C[C@@H]4C[C@H]3CS4)c(F)c2)C(=O)O1,90 to 95
13,NC(=O)c1ccc(N[C@H]2CC[C@H](N)CC2)cc1F,166 to 167
14,N#CCCNC(=O)c1n[nH]cc1NC(=O)c1cccs1,226 to 227
15,CCOC(=O)c1c(C)cc2cnc(C)nc2c1C,84 to 86
16,Cc1cc2ccc(=O)oc2cc1O,253 to 254
17,CC(C)=CCc1c(C)cc(O)cc1C,64 to 65
18,CS(=O)c1cnc2ccsc2c1O (centres undefined),271 to 273
19,OCC1OC(n2cnc3c(NC4CCCc5ccccc54)ncnc32)C(O)C1O (centres undefined),95.5 to 100
